US20260094669A1, “EPITOPE PREDICTION VIA A LEARNED GENOTYPE NETWORK ACROSS CLASS II MHC ALLELES” (Seattle Project Corp., priority 2023, published 2026)

T1: HLA-DP of Raji cells (DPA1*02:02/DPB1*01:01) (human, UniProt P20036 29-222; P04440 30-225, limits assumed)
T1 construct: whole, on cells; also called Raji_25mer DP
T1 MHC II alpha: not shown
T1 MHC II beta: not shown

B1: GACGVGKSALTIQLI (peptide)
peptide: GACGVGKSALTIQLI
notes: KRAS G12C peptide eluted from HLA class II of cells engineered to express a KRAS G12C construct; also called Peptide_099class2; KRAS MHC II Peptide 099
B2: MTEYKLVVVGAC (peptide)
peptide: MTEYKLVVVGAC
notes: KRAS G12C peptide eluted from HLA class II of cells engineered to express a KRAS G12C construct; also called Peptide_098class2; KRAS MHC II Peptide 098

System: CD4+ T cell
Test: not given
Conditions: CD4+ immunogenicity label (1/0) used in logistic regression; ELISpot response data from Ott et al.; cited from earlier work

Molecule	y
AASAAAFPSQRTSWEFLQSLVSIKQEK	1
AAVRPEQRPAARGSRV	0
ALLQNVELRRNVLVSPTPLAN	0
ARLQSKEYPVIFKSIMRQRLISPQL	0
ASATEPANDSLFSPGAANLFSTYLAR	0
DEQGREAELARSGPSAAGPVRLKPGLVPGL	0
DGAWPVLLDKFVEWYKDKQMS	0
DGGRQHSGPRRHSGAGPKPSSSEWAVCWAP	0
DGVSEEFWLVDLLPSTHYT	1
DKGHQFHVHPLLHSGDDLDP	0
DRASFLLTDYALSPDGSIRKATG	1
DRSVLAKKLKFVTLVFRHGDRSPID	0
DSYHLYAYHEELSATVPSQWKKIG	0
DVTGPHLYSIYLHGSTDKLPYVTMGS	0
EDLDANLRKLNFRLFVIRGQPAD	0
EDSDKLFESKAELADHQKF	0
EIHGKCENMTITSRGTTVTPTKETVSLG	0
ELQYRGRELRFNLIANQHLLAPGFVSETR	1
ERFWRNILLLSLHKGSLYPRIPGLGKE	0
EVVGGYTWPSGNIYQGYWAQGKR	0
FAKGFRESDLNSWPVAPRPLLSV	0
FCGTPDYIAPKIIAYQPYGKSVD	0
FPVVQSTEDVFPQGLPNEYAFVT	0
GDQYKATDFVADWAGTFKMVFTPKDGSG	1
GHEHQPDMQKSLLRAAFFGKCFLDR	1

Molecule	y
GHQKLPGKIHLFEAEFTQVAKKEPDG	1
GLTRISIQRAQPLPPCLPSFRPPTALQGLS	0
GPLQLPVTRKNMPLPGVVKLPPLPGS	0
GRMSPSQFARVPGYVGSPLAAMNPK	1
GSGSQMPAWRTRGAISASSTQKTPTTRL	0
GSVLQFMPFTTVSELMKVSAMSSPKV	0
HASHLQEHQRIYTGEKPFKCDT	0
HLLQKQTSIQSPSLYGNSSPPLNK	0
KGEKNGMTFSSTKDYVNNV	0
KHLPGVNFPGNQWNPVEGILPS	0
KLRTIPLSDNTIFRRICTIAKHLE	1
KMQRRNDDKSILMHGLVSLRESSRG	0
LCPREEFLRLCKKIMMRSIQ	0
LENNANHDETSFLLPRKESNIVD	0
LGETMGQVTEKLQPTYMEET	0
LHTHYDYVSALHPVSTPSKEYTSA	0
LNTGLFRIKFKEPLENLI	0
LSPREEFLRLCKKIMMRSIQ	1
MAGPKGFQYRALYPFRRER	0
MSQDIKKADEQIESMTYSTERKT	0
NLKAPRLLFAPEYGPKLKLRALEDRHS	0
NNSKKKWFLFQDSKKIQVEQPQ	0
NQVLASRYGIRGFSTIKIFQKGESPV	0
PAHPSQGAVPPSRAAAEPHLKPSPSELQTA	1
PAPPPAVPKEHPAPPAPPPASAPTP	0

Molecule	y
PASAKSRREFDKIELAYRR	0
PENDDLFMMPRIVDVTSLATEGG	0
PETGEIQVKTFLDREQRESYELKV	0
PGGDSGELITDAHELGVAHPPGY	0
RGQIKLADFRLARLYSSEESR	0
RGRLPAGAVRTLLSQVNKVWDQSS	0
RLVLGKFGDLTNNFSSPHAR	0
RPAGRTQLLWTPAAPTAMAEVGPGHTP	1
RRGGALFASRPRFTPL	0
RYNSTAATNEVSEVTVFSKSPVT	0
SDAFSGLTALPQSILLFGP	0
SGSPPLRVSVGDFSQEFSPIQEAQQD	1
SHHTHSYQRYSHPLFLPGHRLDPPI	0
SHKLESIKEITNFKDAKQLL	0
SHLASLKNNVSPVLRSHSFSDPSPKFA	1
SHNELADSGIPENSFNVSSLVE	0
SHQIHSYQLYTHPLLHPWDHRD	0
SHTQTTLFHTFYELLIQKNKHK	0
SLPSNVLSSLVLVPLHTTPK	0
SLRNNMFEISDRFIGIYKTYNITK	0
SLTEESGGAVAFFPGNLSTSSSA	0
SPGPRTAPRPGSQKQAGKDWQ	0
SPIKLVQKVASKIPFPDRITEESV	0
SPQSGGAATLAAQARLQPVHLDVWGEHERG	0
SRLQTRKNKKLALSSTPSNIAPSD	1

Molecule	y
SSHYKFSKPALQSQSISLVQQS	1
SSPLGRANGRRFANPRDSFSAMGFQR	0
STEVEPKESPHLARHRHLMKTLVKSLST	0
STLPVISDSTTKRRWSALVIGL	0
STQHADLTIIDNIKEMNFLRRYK	0
TAQFAPSPGQPPALSPSYPGHRLPLQQG	0
TETVNHHYLLFQNTDLGSFHDLLR	1
TFPKKIQMLARDFLDEY	0
TGKPEMDFVRLAQLFARARPMGLF	0
TIKNSDKNVVLEHFG	0
TKLKSKAPHWTNCILHEYKNLSTS	0
TKRQVILLHTELERFLEYLPLRF	0
TRNSFALVPSLQRLMLRKVALKNVDSSPS	0
TTPSGSAEYMASEVVEVFTDQAT	0
TTVTHERKQAKVVNPPIQEVGKGARK	0
VKQLERGEASVVDFKKNLEYAAT	0
VNGISSQPQVPFYPNLQKSQYYSTV	0
VTLNDMKARQKALVRERERQLA	0
VTSPKASPVTFPAAAFPTASPANKD	1
WCTEMKRVFGFPVHYTDVSNMS	0
WTPAAPTAMAEVGPGHTPAHPSQGAVPP	1
YLSHTLGAASSFMRPTVPPPQF	0

System: rTCR Jurkat cells (CD69, CD25)
Test: recombinant TCR (rTCR) Jurkat functional assay
Format: cell-based, human
Conditions: co-culture with class II matched KAS116 cells

Molecule	response of TCR969/TCR995 rTCR Jurkat cells to the peptide
EYKLVVVGACG [Peptide_29]	confirmed responses

System: CD4 or CD8 T cell depleted PBMCs
Test: CD4/CD8 depletions followed by IFNγ ELISpot or FluoroSpot
Format: cell-based, human
Conditions: PBMCs from single donors; peptide #29: donor SE-0386
Method: CD4 or CD8 T cells were depleted from total PBMCs using Miltenyi MACS microbeads and columns. PBMCs were labeled with anti-CD4 or anti-CD8 microbeads before being run through a MACS Column placed in a MACS Separator magnet. Labeled cells remained in the column and the negative fractions were collected as either the CD8 or CD4 enriched population. Cells were then plated at 200,000 cells/well and stimulated overnight in an IFNγ ELISpot assay or FluoroSpot assay to detect IFNγ or IL-2.

Molecule	responses in CD4 enriched (CD8 depleted) samples
EYKLVVVGACG [Peptide_29]	demonstrated responses

Same assay, conditions: class II long OLP pools deconvolution

Molecule	T cell response in healthy donor SE-0386
EYKLVVVGACG [Peptide_29]	CD4^+ T cell-dependent response

System: IFNγ-producing T cells (PBMCs)
Test: ex vivo IFNγ ELISpot assay
Format: cell-based, human
Conditions: PBMCs from single donor SE-0386

Molecule	response to single peptides from CD8 pools, ex vivo ELISpot
EYKLVVVGACG [Peptide_29]	demonstrated a response

Same assay, conditions: patient G05-002-122 PBMCs following vaccination

Molecule	responses to single 8-11mer peptides, ex vivo IFNγ ELISpot
EYKLVVVGACG [Peptide_29]	confirmed responses

Target: T1, HLA-DP of Raji cells …
Test: targeted MS of peptides eluted from HLA-DP IP (B7/21.1), Raji cells expressing KRAS G12C 25mer
Conditions: not given

Molecule	binding result
B1	binds

Target: T2, HLA-DP of DBB cells (DPA1*01:03/DPB1*04:01) (human, UniProt P20036 29-222; P04440 30-225, limits assumed)
T2 construct: whole, on cells; also called DBB_25mer DP
T2 sequence (P20036 29-222 limits assumed, chain 1 of 4, other chains not shown): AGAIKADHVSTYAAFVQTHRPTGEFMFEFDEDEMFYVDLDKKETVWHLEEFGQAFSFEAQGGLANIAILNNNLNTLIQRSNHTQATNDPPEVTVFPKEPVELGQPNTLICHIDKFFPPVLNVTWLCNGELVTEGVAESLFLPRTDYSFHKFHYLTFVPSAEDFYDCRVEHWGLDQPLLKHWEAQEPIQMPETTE
T2 sequence (P04440 30-225 limits assumed, chain 2 of 4, other chains not shown): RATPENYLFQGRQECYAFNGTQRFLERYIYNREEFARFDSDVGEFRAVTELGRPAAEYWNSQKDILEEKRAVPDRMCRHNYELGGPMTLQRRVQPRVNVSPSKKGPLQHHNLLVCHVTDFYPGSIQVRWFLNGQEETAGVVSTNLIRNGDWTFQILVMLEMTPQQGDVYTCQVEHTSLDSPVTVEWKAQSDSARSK
Test: targeted MS of peptides eluted from HLA-DP IP (B7/21.1), DBB cells expressing KRAS G12C 25mer
Conditions: not given

Molecule	binding result
B2	binds
